Literature values as cited in patent US20190000834A1, “INJECTABLE COMPOSITION AND A METHOD OF TREATMENT OF THE PHYSICAL ADDICTION” (VERITA RESEARCH PTE LTD, priority 2015, published 2019).

Key:
[1] = system: amphetamine dependence; conditions: Naltrexone 50 mg along with CBT, 12 weeks
[2] = system: amphetamine dependent patients; conditions: naltrexone 50 mg
[3] = system: amphetamine dependence; conditions: outpatients
[4] = system: methamphetamine self-administering animals

In the case of `O=C1CC[C@@]2(O)[C@H]3Cc4ccc(O)c5c4[C@@]2(CCN3CC2CC2)[C@H]1O5` [Naltrexone, (4R,4aS,7aR,12bS)-3-(cyclopropylmethyl)-4a,9-dihydroxy-2,4,5,6,7a,13-hexahydro-1H-4,12-methanobenzofuro [3,2-e] isoquinoline-7-one], the tolerability [1] is given as “well tolerated”, the craving [2] is given as “significantly blocked” and the “subjective effects produced by dexamphetamine” value [2] is given as “significantly attenuated”. For the same molecule, the amphetamine use [3] was “effective in reducing amphetamine use” and the “cue- and drug-induced methamphetamine seeking” value [4] was “attenuated cue—but not drug-induced methamphetamine”.
